The text below walks through data of ChEMBL document CHEMBL5356989, “Impact of multiple H/D replacements on the physicochemical properties of flurbiprofen” (RSC Med Chem, 2023).

Values after ≈ are worked out from the molar mass of the structure shown.

Data set [1] deals with T1, Cytochrome P450 2C9 (Homo sapiens, UniProt P11712). Put plainly: Drug metabolism assessed as recombinant CYP2C9 (unknown origin)-mediated 4'-hydroxyl FP-d7 metabolite formation by measuring Vmax per nmol of CYP at 1 to 5 uM incubated for 10 mins in presence of NADPH by LC-MS analysis. Format: ADME. Particulars: recombinant enzyme, dose 1-5 µM.
Data set [2] concerns the target T1, Cytochrome P450 2C9. Put plainly: Drug metabolism assessed as recombinant CYP2C9 (unknown origin)-mediated 4'-hydroxyl FP-d7 metabolite formation by measuring Vmax/Km per nmol of CYP at 1 to 5 uM incubated for 10 mins in presence of NADPH by LC-MS analysis. Conditions: recombinant enzyme, dose 1-5 µM. Format: ADME.
A short description of data set [3]: Cmax in fasted Sprague Dawley rat at 10 mg/kg, po measured for 8 hrs by HPLC analysis. Particulars: in vivo. Also on record: dose 10 mg/kg, time 8 hrs, route po. Format: ADME, organism-based.
Data set [4] is described as follows: Volume of distribution at steady state in Sprague Dawley rat at 1 mg/kg, iv measured for 8 hrs by HPLC analysis. Format: ADME, organism-based. Particulars: in vivo, read-out: Vdss.
Data set [5] in a line: AUC (0 to 8 hrs) in Sprague Dawley rat at 1 mg/kg, iv measured for 8 hrs by HPLC analysis. Conditions: in vivo. Details: dose 1 mg/kg, time 8 hrs, route iv. Format: ADME, organism-based.
Data set [6] in a line: Lipophilicity, log D of compound in n-octanol/PBS at pH 7.4 at 10 mg measured for 48 hrs by HPLC analysis. Format: physicochemical.
The nature of data set [7]: AUC (0 to 8 hrs) in fasted Sprague Dawley rat at 10 mg/kg, po measured for 8 hrs by HPLC analysis. Conditions: in vivo. Details: dose 10 mg/kg, time 8 hrs, route po. Format: ADME, organism-based.
Data set [8] in a line: Clearance in Sprague Dawley rat at 1 mg/kg, iv measured for 8 hrs by HPLC analysis. Format: ADME, organism-based. Particulars: in vivo.
The nature of data set [9]: Half life in Sprague Dawley rat at 1 mg/kg, iv measured for 8 hrs by HPLC analysis. Format: ADME, organism-based. Particulars: in vivo.
The nature of data set [10]: Solubility in HCl at pH 1.2 at 1 mg measured for 28 hrs by HPLC analysis. Format: physicochemical. Particulars: HCl pH 1.2, pH 1.2.
Data set [11] in a line: Permeability of compound assessed as drug flux measured for 2 to 6 hrs by PAMPA assay. Conditions: time 2-6 hrs. Format: ADME.
Data set [12] can be described thus: Solubility in PBS at pH 6.0 at 1 mg measured for 28 hrs by HPLC analysis. Conditions: PBS pH 6.0, pH 6. Format: physicochemical.
Data set [13] concerns the target T1, Cytochrome P450 2C9. Put plainly: Drug metabolism assessed as recombinant CYP2C9 (unknown origin)-mediated 4'-hydroxyl FP-d7 metabolite formation at 1 to 5 uM incubated for 10 mins in presence of NADPH by LC-MS analysis. Format: ADME. Conditions: recombinant enzyme, dose 1-5 µM.
A short description of data set [14]: Oral bioavailability in fasted Sprague Dawley rat at 10 mg/kg measured for 8 hrs by HPLC analysis. Format: ADME, organism-based. Conditions: in vivo.
Data set [15] is described as follows: Solubility in distilled water at 1 mg measured for 28 hrs by HPLC analysis. Format: physicochemical.
Data set [16] can be described thus: Apparent permeability of compound by PAMPA assay. Format: ADME. In general terms: The PAMPA barrier holds no transporters, so it reflects passive diffusion.
Data set [17] in a line: Tmax in fasted Sprague Dawley rat at 10 mg/kg, po measured for 8 hrs by HPLC analysis. Particulars: in vivo. Format: ADME, organism-based.
Data set [18] deals with T1, Cytochrome P450 2C9. Put plainly: Drug metabolism assessed as recombinant CYP2C9 (unknown origin)-mediated 4'-hydroxy FP metabolite formation at 1 to 5 uM incubated for 10 mins in presence of NADPH by LC-MS analysis. Format: ADME. Particulars: recombinant enzyme, dose 1-5 µM.

T1 sequence (P11712 whole entry): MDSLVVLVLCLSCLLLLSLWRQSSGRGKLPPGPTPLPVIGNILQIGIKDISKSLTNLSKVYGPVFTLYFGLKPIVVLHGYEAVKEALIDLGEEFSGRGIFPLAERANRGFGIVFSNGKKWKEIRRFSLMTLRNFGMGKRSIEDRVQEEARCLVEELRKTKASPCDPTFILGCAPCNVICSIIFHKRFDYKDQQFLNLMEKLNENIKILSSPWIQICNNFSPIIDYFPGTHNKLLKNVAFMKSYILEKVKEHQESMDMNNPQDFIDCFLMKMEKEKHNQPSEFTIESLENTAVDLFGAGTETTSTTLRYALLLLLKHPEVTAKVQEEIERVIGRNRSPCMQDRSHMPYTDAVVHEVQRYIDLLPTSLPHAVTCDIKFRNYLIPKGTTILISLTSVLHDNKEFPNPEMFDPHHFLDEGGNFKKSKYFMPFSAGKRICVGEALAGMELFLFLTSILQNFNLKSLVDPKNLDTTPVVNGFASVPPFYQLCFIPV

Consider `[2H]c1c([2H])c([2H])c(-c2c([2H])c([2H])c(C(C)C(=O)O)c([2H])c2F)c([2H])c1[2H]` (configuration not stated), for which the Vmax in [1] amounted to 0.91 pmol/min. In [2], the Vmax/Km stood at 1.24 µL/min. Further, in data set [3], the highest level (Cmax) was 33000 ng/mL. In addition, the Vd in data set [4] stood at 0.0207 L/kg. The AUC(0-t) at 8 h in data set [5] was determined as 19200 ng·h/mL; in data set [7], 144000 ng·h/mL. In [6], this compound registered a logD at 48 h of 0.87. In data set [8], the clearance is 0.217 mL/min/kg. The half-life in data set [9] is 33 min. For the same compound, the solubility at 28 h in [10] worked out at 12.7 µg/mL (≈ 50.5 µM); in [12], 918 µg/mL (≈ 3640 µM); in data set [15] it was 32.7 µg/mL (≈ 129 µM). Also, the Drug transport in data set [11] turned out to be 4.6 µg/h. Also, in data set [13], the Drug metabolism entry is recorded as “Metabolite_Detected”. This compound came in with a bioavailability in [14] of 75.3%. The Papp in data set [16] was 5.32 ×10⁻⁶ cm/s. Besides, the Tmax in [17] amounted to 60 min.
`CC(C(=O)O)c1ccc(-c2ccccc2)c(F)c1` (configuration not stated) [FLURBIPROFEN] registered a Cmax in data set [3] of 29600 ng/mL. In addition, in [4], the Vd worked out at 0.0204 L/kg. For the same compound, the AUC(0-t) at 8 h in data set [5] was determined as 19500 ng·h/mL; in [7], 130000 ng·h/mL. In data set [6], this compound had a logD at 48 h of 0.9. This compound also gave a clearance in data set [8] of 0.216 mL/min/kg. This compound also gave a half-life in [9] of 34.2 min. Moreover, the results for the solubility at 28 h in data set [10], in data set [12] and in data set [15] were 5.9 µg/mL (≈ 24.2 µM), 810 µg/mL (≈ 3310 µM) and 24.1 µg/mL (≈ 98.7 µM), respectively. The Drug transport in [11] was found to be 4.53 µg/h. The Drug metabolism entry in data set [18] was “Metabolite_Detected”. For the same compound, in [14], the bioavailability is 66.9%. Besides, the Papp in data set [16] was 5.24 ×10⁻⁶ cm/s. Also, the Tmax in data set [17] came to 30 min.

One may read the Vmax as the top rate of the reaction or transport when substrate is in excess. One may read the Cmax as the highest concentration seen after dosing. As a reminder, the AUC(0-t) is the area under the concentration-time curve up to a stated or last time point. Low values mean low exposure, high ones high exposure. As a reminder, the logD is lipophilicity at a set pH, counting ionised and neutral species. Low readings indicate a more hydrophilic compound, high ones a more lipophilic compound. As usually defined, the clearance is the volume of plasma or blood freed of the substance per unit of time. The half-life is how long it takes for the measured level to halve. A higher half-life goes with slow decline. Broadly, the solubility is the dissolved amount per volume that the medium holds. A higher solubility goes with a readily soluble substance. A word on the bioavailability: it is dose-corrected exposure relative to a reference, in per cent. A higher bioavailability goes with good availability. As a reminder, the Papp is a coefficient for how fast a substance crosses the barrier. As a reminder, the Tmax is the time from dosing to the highest level.
